Reference: article PMC6325219, “Preclinical Characterization of NVR 3-778, a First-in-Class Capsid Assembly Modulator against Hepatitis B Virus” (Antimicrobial Agents and Chemotherapy, 2018)
Values joined by “and” are separate entries in the source; they are usually repeats but may differ in a detail not shown here. Equal values may be shown once. Where a name gives a salt, the structure may show the parent alone. Marks after values point to notes of the source that are not given here.

Legend:
HBV T109M core variant = test system: HBV T109M core variant; design: method as in doi:10.1016/S0168-8278(18)30439-2; settings: phase 1b; cited from earlier work
[1] = test system: HBV core protein variant I105L; design: method as in PMID 26598693; settings: previously published results; cited from earlier work
[2] = test system: HBV core protein variant I105V; design: method as in PMID 26598693; settings: previously published results; cited from earlier work
[3] = test system: HBV core protein variant Y118F; design: method as in PMID 26598693; settings: previously published results; cited from earlier work
[4] = test system: HBV core protein variant T109M; design: method as in PMID 26598693; settings: previously published results; cited from earlier work
[5] = test system: HBV core protein variant I105T; design: method as in PMID 26598693; settings: previously published results; cited from earlier work
HBV GT B (wild-type HBV) [6] = test system: HBV GT B (wild-type HBV); design: method as in PMID 26598693; settings: reference; previously published results; cited from earlier work
[7] = test system: HBV core protein variant T109I; design: method as in PMID 26598693; settings: previously published results; cited from earlier work
[8] = test system: HBV core protein variant T109S; design: method as in PMID 26598693; settings: previously published results; cited from earlier work
[9] = test system: HBV rtL180M/M204V/N236T variant; assay: microbe, parasite or virus in culture; type: cell-based, hepatitis B virus; settings: ratio of mean EC50 against variant over WT HBV, HepG2 cells
Description: (§1) Plasmids containing HBV DNA with rtN236T, rtA181V, rtA181V/N236T, and rtL180M/M204V/N236T were generated using the GT B WT or rtL180M/M204V DNA-containing plasmids and site-directed mutagenesis (Agilent Technologies). A panel of nine different HBV core variants (cW102G, cW102R, cI105V, cI105L, cI105T, cT109S, cT109M, cT109I, and cY118F) was generated, also using the GT B WT DNA-containing plasmid and site-directed mutagenesis. The full-length genome from all plasmids was sequenced to confirm that only the intended nucleotide change(s) was present. Finally, HBV sequences from genotypes A (GenBank accession number AF305422), C (GenBank accession number AB033550), D (GenBank accession number V01460), E (GenBank accession number AB274971), F (GenBank accession number AB036912), G (GenBank accession number AF160501), and H (GenBank accession number AB375159) were gene synthesized as 1.1 times the genome length together with part of the CMV promoter at the 5′ end. The gene-synthesized piece was validated by sequencing and subcloned into the pCMV-HBV plasmid using the restriction sites SalI and NdeI (Genewiz, USA).
(§2) HepG2 cells were seeded in 96-well plates at a density of 20,000 cells/well and allowed to attach overnight at 37°C in 5% CO2. Cells were cotransfected with the HBV plasmids (100 ng/well) and a Gaussia expression plasmid (10 ng/well) (Thermo Scientific) using the Lipofectamine LTX Plus transfection reagent (Life Technologies). Transfection mixtures were removed after overnight incubation, and cells were treated with serially diluted NVR 3-778 at a final dimethyl sulfoxide (DMSO) concentration of 0.5%. After 3 days of incubation with the compound, the supernatants were collected and secreted Gaussia luciferase was measured using a Gaussia Flash luciferase assay kit (Thermo Scientific). Cells were lysed with 0.33% NP-40 (Thermo Scientific), and the cytoplasmic fractions were treated with 2 units of Turbo DNase (Invitrogen) and 10 units of S7 nuclease (Roche) in CutSmart buffer (New England Biolabs) containing 25 µM CaCl2 (G-Biosciences) at 37°C for 60 min, followed by inactivation of the enzymes at 75°C for 15 min. Samples were diluted into lysis buffer (Affymetrix) containing 2.5 µg proteinase K (Affymetrix) at 50°C for 40 min. Intracellular encapsidated HBV DNA was denatured for 30 min at 25°C in 0.2 M NaOH (Sigma) and incubated with HBV DNA probes designed to hybridize to the minus-strand HBV DNA (Affymetrix). The denatured DNA was subsequently detected using a QuantiGene assay kit, according to the branched DNA (bDNA) assay recommended by the manufacturer (Affymetrix).
(§3) To determine percent inhibition, the mean background signal from wells containing only culture medium was subtracted from the signal for all other samples, and percent inhibition at each compound concentration was calculated by normalization to the signals for HepG2.2.15 cells treated with 0.5% DMSO. […] Both CalcuSyn and MacSynergy II (Ann Arbor, MI) software were used to evaluate the effect of compound combinations ([27]). After data analysis at the 95% confidence level, values of synergy or antagonism of <25 µM^2% were defined as insignificant, those between 25 and 50 µM^2% were defined as minor, those between 50 and 100 µM^2% were defined as moderate, and those of >100 µM^2% were defined as strong.

[10] = test system: HBV rtL180M/M204V variant; assay: microbe, parasite or virus in culture; type: cell-based, hepatitis B virus; settings: for EC50 fold change, rtL180M/M204V: ratio of mean EC50 against variant over WT HBV, HepG2 cells
Description: as §1, §2, §3

HBV rtA181V variant = assay: microbe, parasite or virus in culture; type: cell-based, hepatitis B virus; settings: for EC50 fold change, rtA181V: ratio of mean EC50 against variant over WT HBV, HepG2 cells
Description: as §1, §2, §3

HBV [11] = assay: Combination study of NVR 3-778 with nucleos(t)ide analogs in HepG2.2.15 cells (MacSynergy II, CalcuSyn); type: cell-based, hepatitis B virus (GT D); settings: in combination with NVR 3-778; for Antagonism / Synergy: HepG2.2.15 cells, 6 days, MacSynergy II, 95% confidence; for CalcuSyn-predicted effect: based on overall CI; for MacSynergy-predicted effect: volumes <25 µM^2% defined as insignificant
Method: The effect of the compound combinations on cell viability was evaluated by measuring the intracellular ATP levels of HepG2.2.15 cells.
(§4) HepG2.2.15 cells were seeded in 96-well plates at a density of 40,000 cells/well and incubated with serially diluted compounds at a final DMSO concentration of 0.5%. In combination studies, cells were treated with compounds either alone or in combination after combining the compounds in a checkerboard format. In studies examining the effect of human serum, serially diluted NVR 3-778 was added into cell culture medium containing 0% to 40% human serum (BioreclamationIVT). Cells were incubated with the compounds for 3 days, after which the medium was removed, fresh medium containing the compounds was added to the cells, and the cells were incubated for another 3 days prior to harvesting of the supernatants or cells for antiviral assays. To quantify intracellular encapsidated rcDNA or encapsidated pgRNA, cells were first solubilized using lysis buffer containing 1% NP-40 and 10 mM CaCl2. The cytoplasmic fraction was then treated with S7 nuclease (6 units) to remove nonencapsidated nucleic acids, after which the S7 nuclease was inactivated by the addition of EDTA (0.5 M). To quantify extracellular HBV DNA or HBV RNA, supernatants from HepG2.2.15 cells were treated with Turbo DNase at 37°C for 60 min, followed by inactivation of DNase at 75°C for 15 min. The levels of HBV DNA were determined by a bDNA assay as described above (Affymetrix). Supernatants or cell lysates containing HBV RNA were treated with proteinase K (2.5 µg) at 50°C for 40 min, transferred to a capture plate containing HBV RNA probe sets, and hybridized overnight at 55°C. Captured HBV RNA was measured by the addition of a chemiluminescent substrate using a QuantiGene assay (Affymetrix). To determine the cytotoxicity effect of the compounds on proliferating cells, HepG2.2.15 cells were seeded in 96-well plates at a density of 10,000 cells/well and incubated with serially diluted compounds at a final DMSO concentration of 0.5% for 3 days, after which the medium was removed, fresh medium containing the compounds was added to the cells, and the cells were incubated for another 3 days. At day 6, the CellTiter-Glo reagent was added to the cells and viability was determined according to the manufacturer’s protocol (Promega). Luminescence signals were measured at 0.2 s using a Victor X4 multimode plate reader (PerkinElmer).
as §3

HBV GT B (wild-type HBV) [12] = assay: Transient-transfection antiviral study in HepG2 cells, GT B (wild-type HBV); type: cell-based, hepatitis B virus; settings: Hepatitis B virus, HepG2, read-out: WT EC50
Method: (§5) Cells were cotransfected with the HBV plasmids (100 ng/well) and a Gaussia expression plasmid (10 ng/well) (Thermo Scientific) using the Lipofectamine LTX Plus transfection reagent (Life Technologies). Transfection mixtures were removed after overnight incubation, and cells were treated with serially diluted NVR 3-778 at a final dimethyl sulfoxide (DMSO) concentration of 0.5%. After 3 days of incubation with the compound, the supernatants were collected and secreted Gaussia luciferase was measured using a Gaussia Flash luciferase assay kit (Thermo Scientific). […] Samples were diluted into lysis buffer (Affymetrix) containing 2.5 µg proteinase K (Affymetrix) at 50°C for 40 min. Intracellular encapsidated HBV DNA was denatured for 30 min at 25°C in 0.2 M NaOH (Sigma) and incubated with HBV DNA probes designed to hybridize to the minus-strand HBV DNA (Affymetrix). The denatured DNA was subsequently detected using a QuantiGene assay kit, according to the branched DNA (bDNA) assay recommended by the manufacturer (Affymetrix).

HBV rtN236T variant = type: cell-based, hepatitis B virus; settings: ratio of mean EC50 against variant over WT HBV, HepG2 cells
Description: as §1, §2, §3

[13] = test system: HBV rtA181V/N236T variant; type: cell-based, hepatitis B virus; settings: ratio of mean EC50 against variant over WT HBV, HepG2 cells
Description: as §1, §2, §3

[14] = test system: nucleoside-resistant HBV variants; assay: Transient-transfection antiviral study, panel of nucleoside-resistant HBV variants (summary statements); type: cell-based, hepatitis B virus; settings: versus WT HBV
Method: as §5

HBV [15] = assay: Antiviral studies using HepG2.2.15 cells (HBV DNA and HBV RNA readouts); type: cell-based, hepatitis B virus (GT D); settings: HepG2.2.15 cells
Method: as §4, with “In” for “HepG2.2.15 cells were seeded in 96-well plates at a density of 40,000 cells/well and incubated with serially diluted compounds at a final DMSO concentration of 0.5%. In”, “To quantify extracellular HBV DNA or HBV RNA, supernatants from HepG2.2.15 cells were treated with Turbo DNase at 37°C for 60 min, followed by inactivation of DNase at 75°C for 15 min.” left out, “To determine the cytotoxicity effect of the compounds on proliferating cells, HepG2.2.15 cells were seeded in 96-well plates at a density of 10,000 cells/well and incubated with serially diluted compounds at a final DMSO concentration of 0.5% for 3 days, after which the medium was removed, fresh medium containing the compounds was added to the cells, and the cells were incubated for another 3 days.” left out

Row | SMILES | EC50 FC, I105L [1] | EC50 FC, I105V [2] | EC50 FC, Y118F [3] | EC50 FC, T109M [4] | EC50 FC, I105T [5] | EC50 FC, wild type (HBV GT B (wild-type HBV) [6]) | EC50 FC, T109I [7] | EC50 FC, T109S [8] | EC50 fold change, rtL180M/M204V/N236T [9] | EC50 fold change, rtL180M/M204V [10] | EC50 fold change, rtA181V (HBV rtA181V variant) | Antagonism (HBV [11]) | Synergy (HBV [11]) | CalcuSyn-predicted effect (HBV [11]) | MacSynergy-predicted effect (HBV [11]) | EC50 (HBV GT B (wild-type HBV) [12]) | EC50 fold change, rtN236T (HBV rtN236T variant) | EC50 fold change, rtA181V/N236T [13] | further results
1 | O=C(NCc1cnc(C(F)(F)F)s1)c1ccc2c(c1)NC(=O)c1ccccc1S2(=O)=O [ABI-H0731] | – | – | – | – | – | – | – | – | – | – | – | – | – | – | – | – | – | – | Antiviral response in a patient with a preexisting T109M core variant (HBV T109M core variant): reduced antiviral response
2 | COC(=O)C1=C(C)NC(c2ncc(F)cc2F)=N[C@H]1c1ccc(F)cc1Cl [Bay 41-4109] | 0.44 fold | 1.3 fold | 8.2 fold | 3.7 fold | 1.5 fold | 1 fold | 21 fold | 0.40 fold | – | – | – | – | – | – | – | – | – | – | –
3 | C=C1[C@H](CO)[C@@H](O)C[C@@H]1n1cnc2c(=O)[nH]c(N)nc21 [ETV, entecavir] | – | – | – | – | – | – | – | – | 14 fold and 14 ± 4^a fold | 31 fold and 31 ± 16^a fold | 2.2 ± 0.5^a fold | −16.5 μM^2% | 1.0 μM^2% | Slight to moderate synergy | Additive | 1.4 ± 0.4 nM | 0.67 ± 0.22^d fold | 1.8 ± 0.6^d fold | –
4 | COC(=O)C1=C(CN2CCOCC2)NC(c2nccs2)=N[C@@H]1c1ccc(F)cc1Br [NVR-010-001-E2] | 0.49 fold | 1.3 fold | 3.7 fold | 2.8 fold | 1.2 fold | 1 fold | 9.2 fold | 0.43 fold | – | – | – | – | – | – | – | – | – | – | –
5 | CC(C)OC(=O)OCOP(=O)(CO[C@H](C)Cn1cnc2c(N)ncnc21)OCOC(=O)OC(C)C [TDF, Tenofovir disoproxil fumarate] | – | – | – | – | – | – | – | – | 2.9 ± 1.5^b fold | 1.1 ± 0.3^d fold | 1.4 ± 0.05^d fold | – | – | – | – | 32 ± 15 nM | 2.2 ± 1.0^b fold | 2.8 ± 1.4^b fold | Reduction of antiviral activity against the variants that contained rtN236T [14]: about 3 fold; EC50 ([10]; Hepatitis B virus, HepG2, read-out: EC50 (mean), rtL180M/M204V variant): 34 nM; EC50 (HBV rtA181V variant; Hepatitis B virus, HepG2, read-out: EC50 (mean), rtA181V variant): 43 nM
6 | C[C@H](Cn1cnc2c(N)ncnc21)OCP(=O)(O)O [TFV, tenofovir] | – | – | – | – | – | – | – | – | – | – | – | −7.3 μM^2% | 18.5 μM^2% | Slight to moderate synergy | Additive | – | – | – | Effect on HBV DNA production (HBV [15]): inhibited HBV DNA production; Effect on intracellular encapsidated HBV RNA and secreted HBV RNA (HBV [15]; dose-dependent): increased the levels
